Article PMC7878295 (Gastroenterology, 2020)
Read-outs that look alike come from different tables or passages of the source. Each block holds one molecule with its values, some of them ahead of it.

Assays:
[1] = test system: lipotoxic HLO; assay: Viability in lipotoxic; format: cell-based
[2] = test system: BSEP; assay: CLF bile acid transport in HLO; format: cell-based, human; settings: normal HLO, viable dosing (100 μM, 200 μM)
[3] = test system: human liver organoid (HLO); settings: 72 h
[4] = test system: human liver organoid (HLO); assay: Mitochondrial membrane potential; settings: treatment for 24h, multiple doses
[5] = Organoid viability after treatment with training compounds; settings: human, human liver organoids (HLO)
[6] = test system: CYP2C9*2 carrier and non-carrier HLO; format: cell-based, human
[7] = test system: human liver organoid (HLO)
[8] = test system: CYP1A2; assay: CYP1A2 induction in HLO

SMILES: CCc1ccc(CCOc2ccc(CC3SC(=O)NC3=O)cc2)nc1 (stereo not drawn) [Pioglitazone]
effect on viability ([1]; 200 μM, 24h, HLO with/without lipotoxic condition): did not affect viability

SMILES: Cc1cc2c(cc1CC(=O)c1sccc1S(=O)(=O)Nc1onc(C)c1Cl)OCO2 [sitaxentan]
CLF transport [2]: inhibited CLF transport

SMILES: CC(c1cc2ccccc2s1)N(O)C(N)=O (stereo not drawn) [Zileuton]
concentration at which induced toxicity was detected in cytotoxicity assay [3]: 100 µM

SMILES: CCN(CC)C(=O)/C(C#N)=C/c1cc(O)c(O)c([N+](=O)[O-])c1 [Entacapone]
increase in MMP [4]: increases in MMP were not clearly observed
viability at 24 h, 130 µM [5]: 85%
viability at 72 h, 130 µM [5]: 64%

Positive rate of impaired CLF excretion ([6]; CC genotype (CYP2C9 enzyme activity normal) HLO): 17.1 % of positive
Positive rate of impaired CLF excretion ([6]; CT genotype (CYP2C9*2, activity intermediate) HLO): 70.8 % of positive
SMILES: COc1ccccc1Oc1c(NS(=O)(=O)c2ccc(C(C)(C)C)cc2)nc(-c2ncccn2)nc1OCCO [Bosentan]

SMILES: Cc1c(C)c2c(c(C)c1O)CCC(C)(COc1ccc(CC3SC(=O)NC3=O)cc1)O2 (stereo not drawn) [Troglitazone]
cell viability at 72 hours relative to TOL, DICLO and BOS [7]: significantly lowered cell viability

SMILES: COc1ccc2c(c1)c(CC(=O)O)c(C)n2C(=O)c1ccc(Cl)cc1 [Indomethacin]
concentration at which induced toxicity was detected in cytotoxicity assay [3]: 10 µM

SMILES: CC(=O)N[C@@H](CS)C(=O)O [NAC, N-acetylcysteine]
rescue of cell viability ([1]; lipotoxic HLO treated with Troglitazone): cell viability was significantly improved

CYP1A2 induction response [8]: major CYP induction responses in HLO
SMILES: COc1ccc2[nH]c([S+]([O-])Cc3ncc(C)c(OC)c3C)nc2c1 (stereo not drawn) [Omeprazol, Omeprazole]
